Measurements from patent publication US6410516B1.

Columns and labels:
[1] = test system: NF-κB; assay: GTP stimulation of NF-κB complex formation in the binding assay; format: biochemical; conditions: GTP 3 mM added to the binding assay; virus-induced extracts
[2] = test system: 70Z/3 cells; conditions: 10 μg/mo cycloheximide; cited from earlier work
[3] = test system: HeLa cells; conditions: anisomycin at 10; cited from earlier work
[4] = test system: NF-KB in 70Z/3 cells; assay: TPA stimulation, subcellular fractions of 70Z/3 cells (mobility shift assay); format: cell-based, mouse; conditions: TPA-stimulated cells; fractions treated with formamide and DOC; densitometric scanning
Experimental: Nuclear extracts, cytosolic and postnuclear membrane fractions were analyzed at equal amounts of protein in an electrophoretic mobility shift assay, described in Example 1, followed by fluorography.
To examine whether the form of NF-kB detected after in vitro activation in the cytosolic fraction could quantitatively account for the NF-kB found in nuclear extracts after TPA stimulation of cells, subcellular fractions of 70Z/3 cells were reinvestigated in mobility shift assays after treatment with formamide and DOC using equal cell-equivalents of subcellular fractions. Equal cell-equivalents of nuclear extracts (N) and cytosolic (C) and post-nuclear membrane fractions (P) from control (Co) and TPA-stimulated cells (TPA) were left untreated (lanes 1-6 and 13-18) or subjected to a formamide/desoxycholate treatment (Fa+DOC; lanes 7-12 and 19-24; for conditions see FIG. 31, lane 11). This treatment was preferred over the DOC/NP-40 chase treatment because it gave a higher resolution of bands in mobility shift assays. DNA-binding reactions were performed in the presence of 3.2 ug poly(d[I-C]) using 4.4 ug of protein from nuclear extracts, 8.8 ug of protein from cytosolic fractions or 2.2 ug of protein from postnuclear membrane fractions (all in 4 ul buffer D(+)). Fluorograms of native gels are shown. […]

[5] = test system: AP-1 in HeLa cells; assay: TPA stimulation, AP-1 DNA-binding activity in HeLa subcellular fractions; format: cell-based, human
From the text: FIG. 28 represents analysis of subcellular fractions for DNA-binding activity of the TPA-inducible transcription factor AP-1. Equal cell-equivalents of nuclear extracts (N) and cytosolic fractions (C) from 70Z/3 and HeLa cells were used in mobility shift assays. AP-1 specific DNA-binding activity was detected using an end-labeled EcoRI-HindIII fragment from the yeast HIS 4 promoter containing three binding sites for GCN4 recognized by mammalian AP-1. The three protein-DNA complexes seen on shorter exposures of the fluorogram are indicated by filled arrowheads and the position of unbound DNA-fragment by an open arrowhead.

[6] = test system: endogenous κ gene; assay: Northern blot, endogenous κ gene expression in 70Z/3 cells; format: cell-based, mouse; conditions: PMA 50 ng/ml, LPS 15 μg/ml or Sendai virus, 0 to 20 hr
Experimental: (§1) FIG. 42C presents results of Northern blot analyses of 70Z/3 cells treated with various inducers.
(§2) RNA preparation and Northern blot analysis were carried out as previously described by Zinn et al., Cell, 34, 865-879 (1983).

[7] = test system: endogenous β-IFN mRNA; assay: Northern blot, endogenous β-IFN mRNA in 70Z/3 cells; format: cell-based, mouse; conditions: PMA 50 ng/ml, LPS 15 μg/ml or Sendai virus, 0 to 20 hr
Experimental: as §1, §2

Nc1nc2c(ncn2[C@@H]2O[C@H](COP(=O)(O)OP(=O)(O)OP(=O)(O)O)[C@@H](O)[C@H]2O)c(=O)[nH]1 [GTP]
NF-κB complex formation [1]: stimulated

C[C@@H]1C[C@@H]([C@H](O)CC2CC(=O)NC(=O)C2)C(=O)[C@@H](C)C1 [cycloheximide]
inhibition of protein synthesis [2]: greater than 95%

COc1ccc(C[C@H]2NC[C@H](O)[C@H]2OC(C)=O)cc1 [anisomycin]
inhibition of protein synthesis [3]: approximately 99%

CCCCCCCCCCCCCC(=O)O[C@@H]1[C@@H](C)[C@@]2(O)[C@@H](C=C(CO)C[C@]3(O)C(=O)C(C)=C[C@@H]23)[C@@H]2C(C)(C)[C@]12OC(C)=O [PMA, phorbol 12-myristate-13-acetate]
kB-specific DNA-binding activity found in nuclear extracts [4]: 80% | AP-1 DNA-binding activity in nuclear extracts after TPA-stimulation [5]: did not show an increase | endogenous κ gene expression [6]: activation of the endogenous κ gene | endogenous β-IFN mRNA [7]: not
